According to patent publication US12545643B2, “3,5-diaminobenzoic acid compound, and Pin1 inhibitor and therapeutic agent for inflammatory diseases using same” (Amenis Bioscience, Inc., priority 2020, dated 2026):

Experiments:
Pin1 [1] = biological target: T1, Pin1 (Homo sapiens, UniProt Q13526); test: Cell-based assay of Pin1 inhibition (AMPK phosphorylation level as index, Western blot); design: endogenous in cells; host or cells: 293T cells; key: +++: a higher level of AMPK phosphorylation is promoted, as compared with C1; ++: a similar level of AMPK phosphorylation is promoted, as compared with C1; +: a lower level of AMPK phosphorylation is promoted, as compared with C1; −: no or almost no promotion is found in AMPK phosphorylation; conditions: 293T cells, compound at 50 μM, 10 mM 2-DG, pAMPK level compared with known Pin1 inhibitor C1
Experimental: To evaluate the inhibitory activity of each compound synthesized in Example 1 against the function of Pin1, a cell-based assay was performed according to the method previously developed by the inventors (Yusuke Nakatsu et al., Journal of Biological Chemistry, 2015, Vol. 290, No. 40, pp. 24255-24266), in which the phosphorylation level of AMPK (AMP-activated protein kinase), a protein whose phosphorylation is suppressed by Pin1, was examined as an index.
Briefly, 293T cells were plated on a collagen-coated 24-well plate. Forty-eight hours later, each compound synthesized in the preceding example (at 50 μM) was added to the plate, and the plate was left to stand in an incubator for 30 minutes. Subsequently, 10 mM 2-DG was added to the plate, and one hour later, each sample was collected with a buffer containing mercaptoethanol and SDS.
SDS-PAGE and blotting were performed, and blocking was then performed with 3% BSA for 1 hour, according to conventional protocols. Subsequently, a pAMPK antibody (Cell Signaling; diluted 1:2000 in Can Get Signal Solution 1, Toyobo) as a primary antibody, and an HRP-linked anti rabbit IgG (GE Healthcare; diluted 1:4000 in Can Get Signal Solution 2, Toyobo) as a secondary antibody were allowed to react at ambient temperature for 1 hour prior to detection.
The inhibitory activity against the function of Pin1 was evaluated as indicated below by comparing the inhibition levels between each compound and a known Pin1 inhibitor, C1 ((R)-2-(5-(4-methoxyphenyl)-2-methylfuran-3-carboxamido)-3-(naphthalene-6-yl) propanoic acid):
(+++): a higher level of AMPK phosphorylation is promoted, as compared with C1;
(++): a similar level of AMPK phosphorylation is promoted, as compared with C1;
(+): a lower level of AMPK phosphorylation is promoted, as compared with C1;
(−): no or almost no promotion is found in AMPK phosphorylation.

Pin1 [2] = biological target: T1, Pin1; test: Cell-free assay of peptidylprolyl isomerase activity (absorbance at 330 nm, substrate Suc-Ala-Glu-Pro-Phe-pNA); assay type: biochemical; conditions: compound 10 μM, Pin1 5 nM, substrate peptide 60 μM, 10° C.; read-out: Pin1 inhibition activity Cell-free assay (inhibition ratio)
Experimental: For some compounds synthesized in Example 1, the inhibitory activity against the function of Pin1 was measured by a cell-free assay based on the method by Janowski et al. (AnalyticalBiochemistry, 1997, Vol. 252, Issue 2, pp. 299-307) because there is an assay measuring peptidylprolylisomerase activity without cells (cell-free).
Briefly, an assay buffer (containing 35 mM HEPES, pH 7.8, 50 μM DTT and 0.0025% NP40) was equilibrated to 10° C. in a quartz cell with stirring function. To this solution was added the compound dissolved in DMSO (10 μM) and then UV spectrum of the resulting solution was immediately measured. Then Pin1 (final concentration of 5 nM) was added to the solution. The reaction was initiated by adding a substrate peptide (Suc-Ala-Glu-Pro-Phe-pNA) dissolved in 0.5 M LiCl solution in trifluoroethanol (final concentration of 60 μM). After reaction was initiated, the change of absorbance at 330 nm was measured for 5 minutes. The resultant reaction curve was fitted to a first order decay model to calculate the reaction rate. The catalytic reaction rate was calculated by subtracting the background rate from the reaction rate. The inhibition ratio (%) was calculated from the catalytic reaction rates in the presence and absence of the compound. The higher inhibition ratio means the higher inhibitory activity against Pin1 function.

T1 sequence (Q13526 whole entry): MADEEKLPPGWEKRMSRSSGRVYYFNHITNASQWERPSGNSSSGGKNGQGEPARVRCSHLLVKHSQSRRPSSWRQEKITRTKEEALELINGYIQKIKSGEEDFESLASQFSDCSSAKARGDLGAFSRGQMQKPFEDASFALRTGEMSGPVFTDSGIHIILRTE

Structure (SMILES)	Pin1 inhibition activity Cell-based assay (Pin1 [1])	inhibition at 10 µM (Pin1 [2]) [%]
COC(=O)c1cc(NC(=O)Cn2c3ccccc3c3ccccc32)cc(NC(=O)c2ccc3ccccc3c2)c1 [Compound H-744]	+ (Hydrolysis causes conversion to H-745)	
O=C(COc1ccccc1)Nc1cc(NC(=O)n2c3ccccc3c3ccccc32)cc(C(=O)O)c1 [Compound H-759]	−	11
COC(=O)c1cc(NC(=O)c2ccc3ccccc3c2)cc(NC(=O)N(c2ccccc2)c2ccccc2)c1 [Compound H-728]	+ (Hydrolysis causes conversion to H-732)	
COC(=O)c1cc(NC(=O)Cn2c3ccccc3c3ccccc32)cc(NC(=O)c2ccc3ccccc3n2)c1 [Compound H-746]	− (Hydrolysis causes conversion to H-747)	
O=C(O)c1cc(NC(=O)c2ccc3c(c2)OCCO3)cc(NC(=O)N(c2ccccc2)c2ccccc2)c1 [Compound H-734]	−	82
O=C(CNC(=O)OCc1ccccc1)Nc1cc(NC(=O)n2c3ccccc3c3ccccc32)cc(C(=O)O)c1 [Compound H-769]	−	15.9
COC(=O)c1cc(NC(=O)CNC(=O)OCc2ccccc2)cc(NC(=O)n2c3ccccc3c3ccccc32)c1 [Compound H-768]	− (Hydrolysis causes conversion to H-769)	
COC(=O)c1cc(NC(=O)c2ccc(OC(C)=O)cc2)cc(NC(=O)n2c3ccccc3c3ccccc32)c1 [Compound H-696]	++ (Hydrolysis causes conversion to H-697)	
O=C(O)c1cc(NC(=O)c2cnc3ccccc3n2)cc(NC(=O)N(c2ccccc2)c2ccccc2)c1 [Compound H-735]	+	
COC(=O)c1cc(NC(=O)c2ccc3c(c2)OCCO3)cc(NC(=O)N(c2ccccc2)c2ccccc2)c1 [Compound H-730]	++ (Hydrolysis causes conversion to H-734)	
O=C(Cn1c2ccccc2c2ccccc21)Nc1cc(NC(=O)c2ccc3ccccc3c2)cc(C(=O)O)c1 [Compound H-745]	−	88 to 95
COC(=O)c1cc(NC(=O)CNC(=O)c2ccccc2)cc(NC(=O)n2c3ccccc3c3ccccc32)c1 [Compound H-766]	+ (Hydrolysis causes conversion to H-767)	
CC(=O)Nc1ccc(C(=O)Nc2cc(NC(=O)n3c4ccccc4c4ccccc43)cc(C(=O)O)c2)cc1 [Compound H-694]	++	69
COC(=O)c1cc(NC(=O)COc2ccc3ccccc3n2)cc(NC(=O)n2c3ccccc3c3ccccc32)c1 [Compound H-764]	− (Hydrolysis causes conversion to H-765)	
COC(=O)c1cc(NC(=O)c2ccc3ccccc3c2)cc(NC(=O)n2c3ccccc3c3ccccc32)c1 [Compound H-591]	+++ (Hydrolysis causes conversion to H-594)	
O=C(O)c1cc(NC(=O)c2cnccn2)cc(NC(=O)n2c3ccccc3c3ccccc32)c1 [Compound H-700]	++	
COC(=O)c1cc(NC(=O)c2ccc3c(c2)OCO3)cc(NC(=O)n2c3ccccc3c3ccccc32)c1 [Compound H-690]	− (Hydrolysis causes conversion to H-695)	
COC(=O)c1cc(NC(=O)c2ccc(NC(C)=O)cc2)cc(NC(=O)n2c3ccccc3c3ccccc32)c1 [Compound H-687]	− (Hydrolysis causes conversion to H-694)	
O=C(COc1ccc2ccccc2c1)Nc1cc(NC(=O)n2c3ccccc3c3ccccc32)cc(C(=O)O)c1 [Compound H-761]	−	70
O=C(CNC(=O)c1ccccc1)Nc1cc(NC(=O)n2c3ccccc3c3ccccc32)cc(C(=O)O)c1 [Compound H-767]	−	74.8

Structure (SMILES)	Pin1 inhibition activity Cell-based assay (Pin1 [1])	inhibition at 10 µM (Pin1 [2]) [%]
O=C(Nc1cc(NC(=O)c2ccc3ccccc3c2)cc(C(=O)O)c1)Nc1cccc2ccccc12 [Compound H-613]	+ to ++	38
COC(=O)c1cc(NC(=O)COc2ccccc2)cc(NC(=O)n2c3ccccc3c3ccccc32)c1 [Compound H-758]	− (Hydrolysis causes conversion to H-759)	
O=C(CN(c1ccccc1)c1ccccc1)Nc1cc(NC(=O)c2ccccc2)cc(C(=O)O)c1 [Compound H-825]		19.9
O=C(O)c1cc(NC(=O)c2ccc3ccccc3n2)cc(NC(=O)N(c2ccccc2)c2ccccc2)c1 [Compound H-733]	−	61
O=C(Cn1c2ccccc2c2ccccc21)Nc1cc(NC(=O)c2ccc3c(c2)OCCO3)cc(C(=O)O)c1 [Compound H-749]		53
COC(=O)c1cc(NC(=O)c2ccc3ccccc3n2)cc(NC(=O)N(c2ccccc2)c2ccccc2)c1 [Compound H-729]	++ (Hydrolysis causes conversion to H-733)	
O=C(O)c1cc(NC(=O)c2ccc3ccccc3c2)cc(NC(=O)n2c3ccccc3c3ccccc32)c1 [Compound H-594]	+++	
COC(=O)c1cc(NC(=O)c2ccccc2)cc(NC(=O)n2c3ccccc3c3ccccc32)c1 [Compound H-679]	++ (Hydrolysis causes conversion to H-681)	
COC(=O)c1cc(NC(=O)COc2ccc3ccccc3c2)cc(NC(=O)n2c3ccccc3c3ccccc32)c1 [Compound H-760]	+ (Hydrolysis causes conversion to H-761)	
COC(=O)c1cc(NC(=O)c2cnc3ccccc3n2)cc(NC(=O)N(c2ccccc2)c2ccccc2)c1 [Compound H-731]	+++ (Hydrolysis causes conversion to H-735)	
O=C(O)c1cc(NC(=O)c2ccc3c(c2)OCO3)cc(NC(=O)n2c3ccccc3c3ccccc32)c1 [Compound H-695]	+++	
O=C(O)c1cc(NC(=O)c2cccnc2)cc(NC(=O)n2c3ccccc3c3ccccc32)c1 [Compound H-682]	+	
O=C(CN(c1ccccc1)c1ccccc1)Nc1cc(NC(=O)c2ccc3c(c2)OCCO3)cc(C(=O)O)c1 [Compound H-823]		4.2
COC(=O)c1cc(NC(=O)Cn2c3ccccc3c3ccccc32)cc(NC(=O)c2ccc3c(c2)OCCO3)c1 [Compound H-748]	++ (Hydrolysis causes conversion to H-749)	
COC(=O)c1cc(NC(=O)c2cnccn2)cc(NC(=O)n2c3ccccc3c3ccccc32)c1 [Compound H-699]	++ (Hydrolysis causes conversion to H-700)	
O=C(Cn1c2ccccc2c2ccccc21)Nc1cc(NC(=O)c2ccc3ccccc3n2)cc(C(=O)O)c1 [Compound H-747]	++	
COC(=O)c1cc(NC(=O)Nc2cccc3ccccc23)cc(NC(=O)c2ccc3ccccc3c2)c1 [Compound H-609]	++ to +++ (Hydrolysis causes conversion to H-613)	
O=C(O)c1cc(NC(=O)c2ccc(O)cc2)cc(NC(=O)n2c3ccccc3c3ccccc32)c1 [Compound H-697]	+	
O=C(O)c1cc(NC(=O)c2ccccc2)cc(NC(=O)n2c3ccccc3c3ccccc32)c1 [Compound H-681]	++	
O=C(O)c1cc(NC(=O)c2ccc3ccccc3c2)cc(NC(=O)N(c2ccccc2)c2ccccc2)c1 [Compound H-732]	+	
